The term IC50 denotes the midpoint of a concentration-inhibition curve.

Each structure is given as a SMILES string. ≈ marks a conversion by molar mass, not a printed value.

Data on 9 molecules can be found in US20100317621A1, “BETA-LACTAMASE INHIBITORS” (priority 2007, published 2010).

Test [1] has as its target T1, SHV-5 β-lactamase (Klebsiella pneumoniae, UniProt P0A3M1).
T1 construct: The β-lactamases were extracted by four cycles of freezing and thawing followed by centrifugation; endogenous in cells; host or cells: Escherichia coli cells containing SHV-5 (crude freeze-thaw extract)
Briefly: biochemical. It is filed as biochemical, Escherichia coli. The following applies: crude enzyme extract, 10 min preincubation at 37° C., nitrocefin 100 μM, PBS pH 7.0; read-out: SHV-5 IC50 Range. The procedure:
(§1) Isolation of β-lactamases. Crude β-lactamase extracts were prepared from 20 ml overnight cultures with shaking. Escherichia coli cells containing SHV-5 or CTXM-15 and Enterobacter cloacae cells containing P99 were further diluted 10-fold and grown to mid-log phase (OD at 600 nm, 0.5-0.8) in Mueller-Hinton II (MH-II) broth at 37° C. The cells were pelleted at 5000 g, washed and resuspended in 2 mL PBS pH 7.0. The β-lactamases were extracted by four cycles of freezing and thawing followed by centrifugation. β-lactamase activity in the extracts was measured with the chromogenic cephalosporin nitrocefin. The amount of protein in each β-lactamase preparation was determined by the bicinchoninic acid (BCA) assay.
(§2) β-lactamase Inhibition. To determine the level of inhibition of β-lactamase enzymes, compounds were diluted in PBS at pH 7.0 to yield concentrations between 100 and 0.005 μM in microtiter plates. An equal volume of diluted enzyme stock was added, and the plates were incubated at 37° C. for 10 min. Nitrocefin solution was then dispensed as substrate into each well at a final concentration of 100 μM, and the plates were immediately read with the kinetic program at 486 nm for 10 min on the SPECTRAMAX® Plus^384 (high-throughput microplate spectrophotometer; Molecular Devices Corp., Sunnyvale, Calif.). Maximum rates of metabolism were then compared to those in control wells (without inhibitors), and percentages of enzyme inhibition were calculated for each concentration of inhibitor. The concentration of inhibitor needed to reduce the initial rate of hydrolysis of substrate by 50% (IC50) was calculated as the residual activity of β-lactamase at 486 nm using the SoftMax Pro 5.0 software (Molecular Devices Corp.).

Test [2] addresses T2, CTXM-15 β-lactamase (Escherichia coli, UniProt Q9EXV5).
T2 construct: The β-lactamases were extracted by four cycles of freezing and thawing followed by centrifugation; endogenous in cells; host or cells: Escherichia coli cells containing CTXM-15 (crude freeze-thaw extract)
Nature of the test: biochemical. The following applies: crude enzyme extract, 10 min preincubation at 37° C., nitrocefin 100 μM, PBS pH 7.0; read-out: CTXM-15 IC50 Range. In kind it is biochemical. The procedure:
as §1, §2

The target in test [3] is T3, P99 AmpC β-lactamase (Enterobacter cloacae, UniProt P05364).
T3 construct: The β-lactamases were extracted by four cycles of freezing and thawing followed by centrifugation; endogenous in cells; host or cells: Enterobacter cloacae cells containing P99 (crude freeze-thaw extract)
Nature of the test: biochemical. It is filed as biochemical. The following applies: crude enzyme extract, 10 min preincubation at 37° C., nitrocefin 100 μM, PBS pH 7.0; read-out: P99 AmpC IC50 Range. The procedure:
as §1, §2

Test [4] concerns E. cloacae expressing the Class C P99+. It is filed as cell-based. The following applies: in the presence of fixed 8 μg/mL ceftazidime; CAMHB, 16-20 hours at 37° C. From the text:
(§3) To determine the ability of test compounds to potentiate the inhibition of the growth of bacterial strains producing beta-lactamase enzymes, classic cell based screening assays were employed. Four bacteria strains producing beta-lactamase enzymes were used: E. coli expressing the Class A Extended Spectrum Beta-Lactamase (ESBL) CTX-M-15, E. coli expressing the Class A ESBL SHV-5, E. cloacae expressing the Class C P99+, and K. pneumoniae expressing the Class A carbapenemase KPC-2. In order to evaluate the ability of test compounds to inhibit beta-lactamase activity, Applicants used a modification of the broth microdilution assay. The assay was conducted in Cation Adjusted Mueller Hinton Broth (CAMHB, BD #212322, BD Diagnostic Systems, Sparks, Md.). Bacteria strains were grown for 3-5 hours in CAMBH broth. All four strains were grown in presence of 50 μg/mL ampicillin to ensure resistance is maintained. In the meantime, test compounds were diluted in DMSO to a 0.1 mg/mL stock. The compounds were added to a microtiter plate and were diluted in 2-fold serial dilutions in CAMHB in a final concentration range of 32 μg/mL to 0.25 μg/mL. An overlay of CAMHB containing a cephalosporin was added to the compounds at a final static concentration of 8 μg/mL. […] Each of these compound plates are made in quadruplicate, one for each bacteria strain. In addition to the titration of test compounds the MICs of a panel of cephalosporins is also tested to ensure the strains are behaving consistently from test to test. Once the test compound and cephalosporin are added the plates can be inoculated. Inocula are conducted according to CLSI broth microdilution method. After inoculation the plates are incubated for 16-20 hours at 37° C. then the Minimal Inhibitory Concentration (MIC) of the test compound is determined visually.
(§4) Using the methodology described above, examples of the current invention were evaluated for their ability to inhibit the growth of β-lactamase producing bacteria in the presence of a β-lactam antibiotic.

Test [5] has as its system E. coli expressing the Class A ESBL CTX-M-15. In kind it is cell-based. The note with it: in the presence of fixed 8 μg/mL cefotaxime; CAMHB, 16-20 hours at 37° C.
Source text: as §3, §4

The subject of test [6] is E. coli expressing the Class A ESBL SHV-5. In kind it is cell-based. The following applies: in the presence of fixed 8 μg/mL ceftazidime; CAMHB, 16-20 hours at 37° C.
Source text: as §3, §4

For test [7], the system named is K. pneumoniae expressing the Class A carbapenemase KPC-2. It is filed as cell-based. The note with it: in the presence of fixed 8 μg/mL ceftazidime; CAMHB, 16-20 hours at 37° C.
Source text: as §3, §4

Test [8] deals with E. coli expressing the Class A ESBL CTX-M-15. Briefly: microbe, parasite or virus in culture. The note with it: Escherichia coli, read-out: MIC alone, E. coli CTX-M-15. In kind it is cell-based.

T3 sequence (P05364 21-381): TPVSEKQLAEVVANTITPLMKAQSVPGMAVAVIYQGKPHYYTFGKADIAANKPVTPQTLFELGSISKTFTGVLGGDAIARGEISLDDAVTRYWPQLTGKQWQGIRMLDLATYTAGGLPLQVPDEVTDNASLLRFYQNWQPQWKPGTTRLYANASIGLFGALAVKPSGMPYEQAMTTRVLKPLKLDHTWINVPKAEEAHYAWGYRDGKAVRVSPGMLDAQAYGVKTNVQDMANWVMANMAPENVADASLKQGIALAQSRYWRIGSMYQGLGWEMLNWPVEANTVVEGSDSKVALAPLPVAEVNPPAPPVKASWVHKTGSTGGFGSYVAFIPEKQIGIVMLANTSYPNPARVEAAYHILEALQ
T2 sequence (Q9EXV5 29-291): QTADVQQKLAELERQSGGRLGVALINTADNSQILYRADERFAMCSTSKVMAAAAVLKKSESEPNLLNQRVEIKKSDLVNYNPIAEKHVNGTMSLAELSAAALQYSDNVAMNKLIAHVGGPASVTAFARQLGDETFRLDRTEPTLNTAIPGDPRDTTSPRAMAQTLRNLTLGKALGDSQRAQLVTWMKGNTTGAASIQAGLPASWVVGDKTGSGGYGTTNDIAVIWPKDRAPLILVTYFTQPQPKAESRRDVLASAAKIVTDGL
T1 sequence (P0A3M1 22-286): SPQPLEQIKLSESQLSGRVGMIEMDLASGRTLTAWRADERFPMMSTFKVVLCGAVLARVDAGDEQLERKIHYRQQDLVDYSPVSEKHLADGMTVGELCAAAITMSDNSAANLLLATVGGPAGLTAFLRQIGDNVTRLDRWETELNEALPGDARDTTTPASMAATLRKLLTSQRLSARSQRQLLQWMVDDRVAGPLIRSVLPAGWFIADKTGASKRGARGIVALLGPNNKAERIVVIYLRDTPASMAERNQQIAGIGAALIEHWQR

As to `O=C(Cc1cccs1)N[C@@H](Cc1cccc(C(=O)O)c1)B(O)O` [Example 1, (1R)-1-(2-thiophene-2-yl-acetylamino)-2-(3-carboxyphenyl)ethyl-1-boronic acid], the half-maximal inhibitory concentration (IC50) was less than 100 nM in test [1], less than 100 nM in test [2] and 100 to 1000 nM in test [3]. For the same molecule, in test [4], the “MIC of example compound, E. cloacae P99+ + 8 μg/mL CAZ” value (“MIC … E. cloacae P99+ + 8 μg/mL CAZ” for short) was “B (B represents an MIC between 2 and 32 μg/mL)”. Moreover, in test [5], the “MIC of example compound, E. coli CTXM-15 + 8 μg/mL TAX” value (from here on “MIC … E. coli CTXM-15 + 8 μg/mL TAX”) was “B (B represents an MIC between 2 and 32 μg/mL)”. In addition, in test [6], the “MIC of example compound, E. coli SHV-5 + 8 μg/mL CAZ” value (from here on “MIC … E. coli SHV-5 + 8 μg/mL CAZ”) was “B (B represents an MIC between 2 and 32 μg/mL)”. In addition, in test [7], the “MIC of example compound, K. pneumoniae KPC-2 + 8 μg/mL CAZ” value (“MIC … K. pneumoniae KPC-2 + 8 μg/mL CAZ” below) is reported as “C (C represents an MIC of <2 μg/mL)”.

As to `COc1cccc(CC(=O)N[C@@H](Cc2cccc(C(=O)O)c2)B(O)O)c1` [Example 2, (1R)-1-(3-Methoxyphenylacetylamino)-2-(3-carboxyphenyl)ethyl-1-boronic acid], the IC50 was less than 100 nM in test [1], less than 100 nM in test [2] and 100 to 1000 nM in test [3]. For the same molecule, in test [4], the “MIC … E. cloacae P99+ + 8 μg/mL CAZ” value is on record as “A (A represents an MIC>32 μg/mL)”. For the same molecule, the “MIC … E. coli CTXM-15 + 8 μg/mL TAX” value in test [5] is “B (B represents an MIC between 2 and 32 μg/mL)”. The “MIC … E. coli SHV-5 + 8 μg/mL CAZ” value in test [6] is “B (B represents an MIC between 2 and 32 μg/mL)”. Further, the “MIC … K. pneumoniae KPC-2 + 8 μg/mL CAZ” value in test [7] was “B (B represents an MIC between 2 and 32 μg/mL)”.

With `COc1ccc(CC(=O)N[C@@H](Cc2cccc(C(=O)O)c2)B(O)O)cc1OC` [Example 11, (1R)-1-(3,4-Dimethoxyphenylacetylamino)-2-(3-carboxyphenyl)ethyl-1-boronic acid], the IC50 in test [1] is less than 100 nM; in test [2], less than 100 nM; in test [3], 100 to 1000 nM. In addition, the “MIC … E. cloacae P99+ + 8 μg/mL CAZ” value in test [4] is “B (B represents an MIC between 2 and 32 μg/mL)”. Moreover, the “MIC … E. coli CTXM-15 + 8 μg/mL TAX” value in test [5] is “B (B represents an MIC between 2 and 32 μg/mL)”. Also, the “MIC … E. coli SHV-5 + 8 μg/mL CAZ” value in test [6] is “B (B represents an MIC between 2 and 32 μg/mL)”. The “MIC … K. pneumoniae KPC-2 + 8 μg/mL CAZ” value in test [7] was “A (A represents an MIC>32 μg/mL)”.

`O=C(CCC(=O)c1cccs1)N[C@@H](Cc1cccc(C(=O)O)c1)B(O)O` [Example 12, (1R)-1-(4-Oxo-4-thiophen-2-yl-butyrylamino)-2-(3-carboxyphenyl)ethyl-1-boronic acid]: the half-inhibitory concentration (IC50) was 100 to 1000 nM in test [1], 100 to 1000 nM in test [2] and less than 100 nM in test [3]. Further, the “MIC … E. cloacae P99+ + 8 μg/mL CAZ” value in test [4] is “B (B represents an MIC between 2 and 32 μg/mL)”. In test [5], the “MIC … E. coli CTXM-15 + 8 μg/mL TAX” value is “B (B represents an MIC between 2 and 32 μg/mL)”. In test [6], the “MIC … E. coli SHV-5 + 8 μg/mL CAZ” value is “B (B represents an MIC between 2 and 32 μg/mL)”. Also, the “MIC … K. pneumoniae KPC-2 + 8 μg/mL CAZ” value in test [7] is “B (B represents an MIC between 2 and 32 μg/mL)”.

On to `O=C(Cc1cccs1)N[C@@H](Cc1ccc(F)c(C(=O)O)c1)B(O)O` [Example 21, (1R)-1-(2-thiophene-2-yl-acetylamino)-2-(3-carboxy-4-fluorophenyl)ethyl-1-boronic acid], for which the IC50 in test [1] was less than 100 nM; in test [2], less than 100 nM; in test [3], 100 to 1000 nM. Moreover, the “MIC … E. cloacae P99+ + 8 μg/mL CAZ” value in test [4] was “B (B represents an MIC between 2 and 32 μg/mL)”. In test [5], the “MIC … E. coli CTXM-15 + 8 μg/mL TAX” value is on record as “C (C represents an MIC of <2 μg/mL)”. Also, in test [6], the “MIC … E. coli SHV-5 + 8 μg/mL CAZ” value is listed as “C (C represents an MIC of <2 μg/mL)”. Moreover, in test [7], the “MIC … K. pneumoniae KPC-2 + 8 μg/mL CAZ” value is “B (B represents an MIC between 2 and 32 μg/mL)”.

Regarding `O=C(Cc1cccc(O)c1)N[C@@H](Cc1cccc(C(=O)O)c1)B(O)O` [Example 22, (1R)-1-(3-Hydroxyphenylacetylamino)-2-(3-carboxyphenyl)ethyl-1-boronic acid], the figures for the IC50 in test [1], in test [2] and in test [3] were less than 100 nM, less than 100 nM and 100 to 1000 nM, respectively. Also, the “MIC … E. cloacae P99+ + 8 μg/mL CAZ” value in test [4] is “B (B represents an MIC between 2 and 32 μg/mL)”. Further, the “MIC … E. coli CTXM-15 + 8 μg/mL TAX” value in test [5] is “B (B represents an MIC between 2 and 32 μg/mL)”. In test [6], the “MIC … E. coli SHV-5 + 8 μg/mL CAZ” value is reported as “C (C represents an MIC of <2 μg/mL)”. The “MIC … K. pneumoniae KPC-2 + 8 μg/mL CAZ” value in test [7] is “B (B represents an MIC between 2 and 32 μg/mL)”.

Turning to `O=C(Cc1ccsc1)N[C@@H](Cc1cccc(C(=O)O)c1)B(O)O` [Example 29, (1R)-1-(2-thiophene-3-yl-acetylamino)-2-(3-carboxyphenyl)ethyl-1-boronic acid], the 50% inhibitory concentration (IC50) is less than 100 nM in test [1], 100 to 1000 nM in test [2] and 100 to 1000 nM in test [3]. For the same molecule, the “MIC … E. cloacae P99+ + 8 μg/mL CAZ” value in test [4] is recorded as “A (A represents an MIC>32 μg/mL)”. Besides, the “MIC … E. coli CTXM-15 + 8 μg/mL TAX” value in test [5] was “C (C represents an MIC of <2 μg/mL)”. Besides, in test [6], the “MIC … E. coli SHV-5 + 8 μg/mL CAZ” value came out at 8 µg/mL. Besides, in test [7], the “MIC … K. pneumoniae KPC-2 + 8 μg/mL CAZ” value was “B (B represents an MIC between 2 and 32 μg/mL)”.

Turning to `NCCOc1cccc(CC(=O)N[C@@H](Cc2cccc(C(=O)O)c2)B(O)O)c1` [Example 30, (1R)-1-{2-[3-(2-Amino-ethoxy)-phenyl]-acetylamino}-2-(3-carboxyphenyl)ethyl-1-boronic acid], the IC50 in test [1] was 100 to 1000 nM; in test [2] it was less than 100 nM; in test [3] it was 100 to 1000 nM. For the same molecule, in test [4], the “MIC … E. cloacae P99+ + 8 μg/mL CAZ” value was “B (B represents an MIC between 2 and 32 μg/mL)”. Moreover, the “MIC … E. coli CTXM-15 + 8 μg/mL TAX” value in test [5] is “B (B represents an MIC between 2 and 32 μg/mL)”. The “MIC … E. coli SHV-5 + 8 μg/mL CAZ” value in test [6] was “B (B represents an MIC between 2 and 32 μg/mL)”. For the same molecule, the “MIC … K. pneumoniae KPC-2 + 8 μg/mL CAZ” value in test [7] was “B (B represents an MIC between 2 and 32 μg/mL)”.

For `CO/N=C(\C(=O)N[C@@H]1C(=O)N2C(C(=O)O)=C(COC(C)=O)CS[C@H]12)c1csc(N)n1` [cefotaxime], in test [8], the MIC was 1020 µg/mL (≈ 2250 µM).
